Measured values as given in PubChem BioAssay AID652161 (Sanford-Burnham Center for Chemical Genomics, 2013).
The source made the active and inactive calls.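 Rule for the calls: active = IC50 of 25 µM or lower, counted as toxic to worms; inactive = the rest.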

Test system: C. elegans VP596, manual health composite score, 20-22 h
Experiment: whole-worm cytotoxicity of SKN-1 inhibitor candidates – whole organism, strain VP596, composite health score, cytotoxicity control for SKN-1 inhibitor project, SAR follow-up (AID 652161)

Row | SMILES | IC50
1 | Cc1ccccc1-c1noc(-c2cccs2)n1 | 7.83 µM
2 | Fc1ccc(COc2ccc(-c3nnco3)cc2)cc1 | 34.9 µM (inactive)
3 | COc1cc(CNC(C)c2ccccc2)cc(Br)c1OCc1ccc(F)cc1 (stereo not drawn) | > 64 µM (inactive)
4 | Fc1ccc(COc2ccc(-c3nnco3)cc2)c(Cl)c1 | 8.11 µM
5 | O=C(Nc1nc(-c2ccc(Cl)s2)cs1)c1cccs1 | > 64 µM (inactive)
6 | c1ccc2oc(SCc3nc4ccccc4s3)nc2c1 | 13.9 µM
7 | O=C(/C=C/c1cccs1)c1ccc(Br)cc1 | 11.6 µM
8 | Brc1ccc(CSc2nnc(-c3ccco3)o2)cc1 | 8.76 µM
9 | O=C(Nc1nccs1)c1ccc2ccccc2n1 | 16 µM
10 | CCOc1cc(CNC2CCCC2)cc(Cl)c1OCc1ccccc1 | > 64 µM (inactive)
11 | O=C(Nc1nc(-c2ccccc2)cs1)c1cccs1 | 15 µM
12 | Clc1ccc(-c2nnc(-c3ccco3)o2)cc1 | 16.9 µM
13 | CCOc1ccc(-c2nc(-c3cccnc3)no2)cc1 | 8.88 µM
14 | O=C(Nc1ccc(CN2CCOCC2)cc1)c1cc2ccccc2o1 | 35.3 µM (inactive)
15 | O=C(/C=C/Nc1ccc(F)cc1F)c1ccco1 | 24.1 µM
16 | Cc1nc2ccccc2cc1OCc1ccc(F)cc1 | 8.59 µM
17 | O=C(Nc1nc(-c2ccc(Cl)s2)cs1)c1ccco1 | 16.1 µM
18 | c1ccc(-c2csc(-c3ccncc3)n2)cc1 | 23.9 µM
19 | Cc1ccc(N=C/C(C(=O)C(F)(F)F)=C(\O)c2ccco2)cc1Cl | 27.2 µM (inactive)
20 | COc1cc(CNC2CCCC2)cc(Cl)c1OCc1ccc(F)cc1 | 46.9 µM (inactive)

Row | SMILES | IC50
21 | COc1cc(CNC(C)(C)CO)cc(Br)c1OCc1ccc(Cl)cc1 | 56.3 µM (inactive)
22 | CC(C)c1ccc(C(=O)Nc2ccc(CN3CCOCC3)cc2)cc1 | 14.7 µM
23 | Cc1cc(OCc2cccc(Cl)c2)c(C)cc1CN1CCOCC1 | 21 µM
24 | CSc1cccc(NC(=O)c2cccc3cccnc23)c1 | 47 µM (inactive)
25 | Brc1ccc(-c2nc(-c3ccccc3)no2)o1 | 11.9 µM
26 | O=C(Nc1nc2c(ccc3ccccc32)s1)c1ccco1 | 20.3 µM
27 | O=C(/C=C/Nc1ccc(F)c(F)c1)c1cccs1 | > 64 µM (inactive)
28 | c1ccc(SCc2cc(-c3ccccc3)no2)cc1 | 11.5 µM
29 | Brc1ccc(CSc2nnc(-c3cccnc3)o2)cc1 | 25.2 µM (inactive)
30 | CCOc1cc(CNC2CCCC2)cc(Cl)c1OCc1ccc(F)cc1 | > 64 µM (inactive)
31 | Cc1ccc(CSc2nnc(-c3ccco3)o2)cc1 | 19.1 µM
32 | O=C(/C=C/Nc1ccccc1F)c1cccs1 | 35.2 µM (inactive)
33 | Clc1ccc(Nc2nc(-c3cccs3)cs2)nc1 | 12.4 µM
34 | Cc1ccc(-c2noc(-c3cccs3)n2)cc1 | 10.6 µM
35 | CCOc1cc(CNCCSc2nnnn2C)cc(Br)c1OCc1ccc(F)cc1 | 16 µM
36 | CCOC(=O)Nc1nc(-c2ccc(F)cc2F)cs1 | 22.9 µM
37 | CCc1ccc(-c2nc(-c3ccncc3)no2)cc1 | 10.6 µM
38 | O=C(/C=C/c1ccc(Br)cc1)c1ccc(NC2=NCCCS2)cc1 | 20.1 µM
39 | COc1ccc(C(=O)Nc2nc(-c3cccs3)cs2)cc1 | > 64 µM (inactive)
40 | Clc1ccc(-c2nnc(-c3ccccc3)o2)c(Cl)c1 | 27.9 µM (inactive)

Row | SMILES | IC50
41 | Brc1ccc(-c2nnc(-c3ccco3)o2)cc1 | 12.9 µM
42 | Fc1ccc(-c2csc(-c3ccncc3)n2)cc1 | 10.6 µM
43 | O=C(Nc1nc(-c2ccc(Cl)s2)cs1)c1ccccc1 | > 64 µM (inactive)
44 | c1ccc(-c2nc(-c3ccncc3)no2)cc1 | > 64 µM (inactive)
45 | Cc1ccc(Nc2nc(-c3cccs3)cs2)nc1 | 27.3 µM (inactive)
46 | O=C(/C=C/Nc1ccc(F)c(Cl)c1)c1ccco1 | 18.8 µM
47 | c1ccc2sc(SCc3ccc(-c4nnco4)cc3)nc2c1 | 14.5 µM
48 | CCOC(=O)c1c(-c2ccc(-c3ccccc3)cc2)csc1NC(=O)CNCCN(C)C | > 64 µM (inactive)
49 | O=C(/C=C/c1ccccc1)Nc1ccc(CN2CCOCC2)cc1 | > 64 µM (inactive)
50 | Clc1ccccc1-c1nc(-c2ccncc2)no1 | 15.3 µM
51 | c1ccc(-c2csc(Nc3ccccn3)n2)cc1 | 6.56 µM
52 | Cc1ccc2nc(-c3ccc(NC(=S)NC4CC(C)(C)NC(C)(C)C4)cc3)sc2c1 | 62 µM (inactive)
53 | Fc1ccc(-c2csc(Nc3ccccn3)n2)cc1 | 7.02 µM
54 | Clc1ccccc1-c1nnc(-c2ccccc2Cl)o1 | 20.9 µM
55 | Cc1oc(-c2ccc(-c3ccccc3)cc2)nc1CN(C)C1CCOC1 (stereo not drawn) | > 64 µM (inactive)
56 | O=C(/C=C/Nc1ccc(Br)cc1F)c1ccco1 | 14.8 µM
57 | O=C(/C=C/Nc1ccc(F)cc1F)c1cccs1 | 21.4 µM
58 | c1ccc(Nc2nc(-c3cccs3)cs2)nc1 | 14.9 µM
